Results published in patent US20180289655A1, “Methods and Compositions for the Intravenous Administration of Fumarates for the Treatment of Neurological Diseases” (Biogen MA Inc., priority 2015, published 2018).
“Also recorded” adds a separate entry of the source. Counter-ions that a name gives are not always drawn.

Experiments:
[1] = Tail histopathology for DMF IV multi-dose tolerability; assay type: in vivo, C57BL/6 mice; conditions: Study 3, DMF IV 30 mg/kg once a day for 5 consecutive days
Protocol: Tissue samples were preserved in 10% neutral buffered formalin (NBF) and then transferred to the Translational Pathology Laboratory for processing into paraffin blocks, slide preparation, and hematoxylin and eosin staining. Histopathology evaluation of the stained slides was performed by the Biogen Idec Comparative Pathology department (data not provided herein).
A CBC with differential panel was performed at 10 minutes post-last dose via facial vein bleeding, and at 2 hours after the last dose, pharmacodynamic Nrf2 transcriptional responses were analyzed in tissues from the same animals. Histopathology was also performed on regions of the tail in a pilot toxicology study.

[2] = Chemical stability of DMF nano suspension (HPLC); assay type: physicochemical; conditions: Day 1, room temperature
Protocol: 5.0 ml of pH5.0 phosphate buffer (Fisher Scientific, Lot No. 100498) were added to the tube. Further, ZrO2 beads (˜10 ml) were also added to the tube. The sample was vortexed in a Fisher Scientific multi-tube vortexer at 2500 rpm for 60 min and the particle size was checked via optical microscopic image. An additional 5.0 ml of pH5 phosphate buffer was added and the sample was further milled overnight. The temperature of the sample was ˜60° C. due to the overnight milling. The particle size was determined via microscopic image and Mastersizer 2000.
The suspension was stored at room temperature and samples were taken at day 1 and day 7. The stability of the samples was examined using HPLC method for chemical stability, PSD and microscopic image (data not provided) for physical stability.

[3] = Solution stability of DMF in aqueous solution (HPLC); assay type: physicochemical; parameters: DMF assay: unit not given here
Protocol: Solution stability studies were conducted using 0.2 mg/ml concentration solutions, which were achieved by mixing equal volumes of the stock solution and individual study media. […] Samples stored at 37° C. or ambient temperature were pulled at predetermined time points, and analyzed by HPLC.

[4] = Solubility of DMF in 20% Captisol; assay type: physicochemical; conditions: aqueous with cosolvent or surfactant or cyclodextrin, thermodynamic from solid, room temperature (heated at 50° C., cooled, filtered)
Protocol: The preparations were heated at 50° C. for 5-10 min, followed by cooled to room temperature.

[5] = Stability of DMF 20% Captisol solutions at ambient temperature (HPLC); assay type: physicochemical; conditions: for DMF area %: 20% Captisol
From the text: Samples stored at ambient temperature were pulled at predetermined time points (0, 2 and 7 days), and analyzed by HPLC. [table]

[6] = SGF (without pepsin), 0.2 mg/ml, initial
[7] = SGF (without pepsin), 37° C., 24 hr
[8] = SGF (without pepsin), ambient temperature, 24 hr
[9] = SGF (without pepsin), ambient temperature, 48 hr
[10] = SGF (without pepsin), ambient temperature, 72 hr
[11] = SIF (without pancreatin), 0.2 mg/ml, initial
[12] = SIF (without pancreatin), 37° C., 24 hr
[13] = SIF (without pancreatin), ambient temperature, 24 hr
[14] = SIF (without pancreatin), ambient temperature, 48 hr
[15] = SIF (without pancreatin), ambient temperature, 72 hr
[16] = Water, ambient temperature, 24 hr
[17] = Water, ambient temperature, 48 hr
[18] = Water, ambient temperature, 72 hr
[19] = pH 2 Citrate Buffer, 0.2 mg/ml, initial
[20] = pH 2 Citrate Buffer, 37° C., 24 hr
[21] = pH 2 Citrate Buffer, ambient temperature, 24 hr
[22] = pH 2 Citrate Buffer, ambient temperature, 48 hr
[23] = pH 2 Citrate Buffer, ambient temperature, 72 hr
[24] = pH 4 Citrate Buffer, 0.2 mg/ml, initial
[25] = pH 4 Citrate Buffer, 37° C., 24 hr
[26] = pH 4 Citrate Buffer, ambient temperature, 24 hr
[27] = pH 4 Citrate Buffer, ambient temperature, 48 hr
[28] = pH 4 Citrate Buffer, ambient temperature, 72 hr
[29] = pH 6 Citrate Buffer, 0.2 mg/ml, initial
[30] = pH 6 Citrate Buffer, 37° C., 24 hr
[31] = pH 6 Citrate Buffer, ambient temperature, 24 hr
[32] = pH 6 Citrate Buffer, ambient temperature, 48 hr
[33] = pH 6 Citrate Buffer, ambient temperature, 72 hr
[34] = pH 8 Borate Buffer, 0.2 mg/ml, initial
[35] = pH 8 Borate Buffer, 37° C., 24 hr
[36] = pH 8 Borate Buffer, ambient temperature, 24 hr
[37] = pH 10 Borate Buffer, 0.2 mg/ml, initial
[38] = pH 10 Borate Buffer, 37° C., 24 hr
[39] = pH 10 Borate Buffer, ambient temperature, 24 hr

SMILES: COC(=O)/C=C/C(=O)OC [DMF, dimethyl fumarate]
- Tail histology near the injection site [1]: changes similar to that which was observed in vehicle control mice; also recorded: did not reveal any treatment-related findings
- Area % of DMF remaining [2]: 99.9 area %
- Stability of DMF in solution at higher pH ([3]; 37° C., aqueous media): decreased rapidly as the solution pH went above 7
- pH of maximum stability of DMF in solution ([3]; 37° C., aqueous media): ~4
- DMF area % [3, 6]: 99.3 area %
- DMF assay [3, 6]: 102.9
- DMF area % [3, 7]: 92.2 area %
- DMF assay [3, 7]: 91.1
- DMF area % [3, 8]: 96.6 area %
- DMF assay [3, 8]: (95.2)
- DMF area % [3, 9]: 95.6 area %
- DMF assay [3, 9]: (92.5)
- DMF area % [3, 10]: 95.4 area %
- DMF assay [3, 10]: (91.6)
- DMF area % [3, 11]: 99.3 area %
- DMF assay [3, 11]: 100.9
- DMF area % [3, 12]: 29.5 area %
- DMF assay [3, 12]: 27.8
- DMF area % [3, 13]: 68.7 area %
- DMF assay [3, 13]: (68.3)
- DMF area % [3, 14]: 64.5 area %
- DMF assay [3, 14]: (60.3)
- DMF area % [3, 15]: 62.2 area %
- DMF assay [3, 15]: (59.0)
- DMF area % ([3]; Water, 0.2 mg/ml, initial): 96.6 area %
- DMF assay ([3]; Water, 0.2 mg/ml, initial): 98.9
- DMF area % ([3]; Water, 37° C., 24 hr): 77.4 area %
- DMF assay ([3]; Water, 37° C., 24 hr): 73.9
- DMF area % [3, 16]: 84.8 area %
- DMF assay [3, 16]: (81.6)
- DMF area % [3, 17]: 85.1 area %
- DMF assay [3, 17]: (80.2)
- DMF area % [3, 18]: 83.5 area %
- DMF assay [3, 18]: (79.3)
- DMF area % [3, 19]: 99.5 area %
- DMF assay [3, 19]: 101.0
- DMF area % [3, 20]: 97.9 area %
- DMF assay [3, 20]: 96.0
- DMF area % [3, 21]: 99.1 area %
- DMF assay [3, 21]: (94.7)
- DMF area % [3, 22]: 98.9 area %
- DMF assay [3, 22]: (93.2)
- DMF area % [3, 23]: 98.7 area %
- DMF assay [3, 23]: (92.0)
- DMF area % [3, 24]: 99.8 area %
- DMF assay [3, 24]: 101.9
- DMF area % [3, 25]: 99.6 area %
- DMF assay [3, 25]: 100.4
- DMF area % [3, 26]: 99.6 area %
- DMF assay [3, 26]: (97.2)
- DMF area % [3, 27]: 99.2 area %
- DMF assay [3, 27]: (98.5)
- DMF area % [3, 28]: 99.6 area %
- DMF assay [3, 28]: (93.9)
- DMF area % [3, 29]: 100 area %
- DMF assay [3, 29]: 101.4
- DMF area % [3, 30]: 92.6 area %
- DMF assay [3, 30]: 91.8
- DMF area % [3, 31]: 97.5 area %
- DMF assay [3, 31]: (90.7)
- DMF area % [3, 32]: 95.3 area %
- DMF assay [3, 32]: (92.5)
- DMF area % [3, 33]: 96.1 area %
- DMF assay [3, 33]: (88.4)
- DMF area % [3, 34]: 98.6 area %
- DMF assay [3, 34]: 101.0
- DMF area % [3, 35]: 17.2 area %
- DMF assay [3, 35]: 15.9
- DMF area % [3, 36]: 46.5 area %
- DMF assay [3, 36]: (44.8)
- DMF area % [3, 37]: 37.1 area %
- DMF assay [3, 37]: 36.1
- DMF area % [3, 38]: 0/0 area %
- DMF assay [3, 38]: 0/0
- DMF area % [3, 39]: 0/0 area %
- DMF assay [3, 39]: 0/0
- Degradation of DMF before initial HPLC determination ([3]; pH 10 borate buffer solution): more than half of DMF degraded before an initial concentration was able to be determined
- solubility [4]: 4110 µg/mL
- Stability of DMF in 20% Captisol solution ([5]; 0.2 mg/ml): stable up to 2 days; also recorded: stable up to 2 d; also recorded: chemically and physically stable for 2 days
- DMF area % ([5]; 0.2 mg/ml, 2 d): 99.5 area %
- DMF area % ([5]; 0.2 mg/ml, 7 d): 97.2 area %
- DMF area % ([5]; 0.2 mg/ml, initial): 99.7 area %
- DMF area % ([5]; 4 mg/ml, 7 d): 99.4 area %
- DMF area % ([5]; 4 mg/ml, initial): 99.7 area %
